According to patent EP0289204B1, “Lithium salt-containing pharmaceutical compositions” (EFAMOL HOLDINGS PLC, priority 1987, dated 1988):
Where two headings read alike, the source gives them in different places.

Experiments:
[1] = Description: Each 50 ml water contained 11.4 mg lithium. Each aqueous solution was then shaken with 250 ml of chloroform/methanol (2/l by volume). The chloroform/methanol fraction was then separated off and evaporated to dryness under a stream of nitrogen. The mass of dry extract from the chloroform/methanol phase was weighed and its lithium content determined by flame photometry. The lithium content of the aqueous phase was also measured by flame photometry. • (B) 1 g of pure gamma-linolenic acid was dissolved in 10 ml of chloroform/methanol (2/l by volume). The resulting solution was then thoroughly shaken with 50 ml distilled water. The chloroform/methanol phase was then separated off and evaporated to dryness in a stream of nitrogen and the mass of dry extract was weighed.
[2] = Partition of lithium between water and chloroform/methanol (experiment A), lithium determined by flame photometry; format: physicochemical; conditions: 50 ml distilled water shaken with 250 ml chloroform/methanol (2/l by volume); range of five repeats
Description: Each 50 ml water contained 11.4 mg lithium.

[3] = physchem
[4] = 1 g in 10 ml chloroform/methanol (2/l by volume) shaken with 50 ml distilled water, range of five repeats
[5] = fatty acid salt, taken as equivalent to the percentage of lithium (experiment A)

SMILES | Percentage of total fatty acid/ fatty acid salt* in: Aqueous phase [1, 4] | Percentage of total fatty acid/ fatty acid salt* in: Chloroform/methanol phase [1, 4] | Percentage of total lithium in: Chloroform/methanol phase [2] | Percentage of total lithium in: Aqueous phase [2] | solubility ([3]; alcohol, organic solvent or mixture) | solubility ([3]; water) | Percentage of total fatty acid/ fatty acid salt* in: Aqueous phase [1, 5] | Percentage of total fatty acid/ fatty acid salt* in: Chloroform/methanol phase [1, 5]
CCCCC/C=C\C/C=C\C/C=C\CCCCC(=O)O [Gamma-linolenic acid, reference compound] | 2-9% | 91-98% |  |  |  |  |  | 
[Cl-].[Li+] [Lithium chloride, reference compound] |  |  | 1-5% |  |  |  |  | 
CCCCC/C=C\C/C=C\C/C=C\CCCCC(=O)[O-].[Li+] [Lithium gammalinolenate, Lithium gamma-linolenate] |  |  | 83-89% | 11-17% | > 30 mg/mL | > 30 mg/mL | 11-17% | 83-89%
